Assay: Henry's Law constant (molality scale); of the first substance listed, at infinite dilution; mn = molality of the nth substance listed, in mol/kg
Conditions: Liquid, m1 = 0

O=C=O [carbon dioxide] + CCCCn1cc[n+](C)c1.F[P-](F)(F)(F)(F)F
Conditions | Henry's Law constant [kPa·kg/mol]
293.15 K | 1200
313.15 K | 1890
333.15 K | 2700
353.15 K | 3570
373.15 K | 4470
393.15 K | 5490
